Measurements taken from US20160289186A1, “FLUOROMETHYL-SUBSTITUTED PYRROLE CA[…]” (Grunenthal GmbH, priority 2013, published 2016).

molecular target: T1, Human CaV2.2 channels (Homo sapiens, UniProt Q00975); experiment: Fluorescent (FLIPR) assay for CaV2.2 channels using potassium depolarization to induce channel opening; format: cell-based; settings: 3 μM compound; 30 mM KCl assay buffer (inactivated channel state); HEK293 cells stably expressing human CaV2.2; read-out: Activity Category: %-Inhib (CaV2.2) @3 μM @30 mM KCl
T1 construct: expressed in transfected cells; host or cells: HEK293
T1 sequence (Q00975 whole entry): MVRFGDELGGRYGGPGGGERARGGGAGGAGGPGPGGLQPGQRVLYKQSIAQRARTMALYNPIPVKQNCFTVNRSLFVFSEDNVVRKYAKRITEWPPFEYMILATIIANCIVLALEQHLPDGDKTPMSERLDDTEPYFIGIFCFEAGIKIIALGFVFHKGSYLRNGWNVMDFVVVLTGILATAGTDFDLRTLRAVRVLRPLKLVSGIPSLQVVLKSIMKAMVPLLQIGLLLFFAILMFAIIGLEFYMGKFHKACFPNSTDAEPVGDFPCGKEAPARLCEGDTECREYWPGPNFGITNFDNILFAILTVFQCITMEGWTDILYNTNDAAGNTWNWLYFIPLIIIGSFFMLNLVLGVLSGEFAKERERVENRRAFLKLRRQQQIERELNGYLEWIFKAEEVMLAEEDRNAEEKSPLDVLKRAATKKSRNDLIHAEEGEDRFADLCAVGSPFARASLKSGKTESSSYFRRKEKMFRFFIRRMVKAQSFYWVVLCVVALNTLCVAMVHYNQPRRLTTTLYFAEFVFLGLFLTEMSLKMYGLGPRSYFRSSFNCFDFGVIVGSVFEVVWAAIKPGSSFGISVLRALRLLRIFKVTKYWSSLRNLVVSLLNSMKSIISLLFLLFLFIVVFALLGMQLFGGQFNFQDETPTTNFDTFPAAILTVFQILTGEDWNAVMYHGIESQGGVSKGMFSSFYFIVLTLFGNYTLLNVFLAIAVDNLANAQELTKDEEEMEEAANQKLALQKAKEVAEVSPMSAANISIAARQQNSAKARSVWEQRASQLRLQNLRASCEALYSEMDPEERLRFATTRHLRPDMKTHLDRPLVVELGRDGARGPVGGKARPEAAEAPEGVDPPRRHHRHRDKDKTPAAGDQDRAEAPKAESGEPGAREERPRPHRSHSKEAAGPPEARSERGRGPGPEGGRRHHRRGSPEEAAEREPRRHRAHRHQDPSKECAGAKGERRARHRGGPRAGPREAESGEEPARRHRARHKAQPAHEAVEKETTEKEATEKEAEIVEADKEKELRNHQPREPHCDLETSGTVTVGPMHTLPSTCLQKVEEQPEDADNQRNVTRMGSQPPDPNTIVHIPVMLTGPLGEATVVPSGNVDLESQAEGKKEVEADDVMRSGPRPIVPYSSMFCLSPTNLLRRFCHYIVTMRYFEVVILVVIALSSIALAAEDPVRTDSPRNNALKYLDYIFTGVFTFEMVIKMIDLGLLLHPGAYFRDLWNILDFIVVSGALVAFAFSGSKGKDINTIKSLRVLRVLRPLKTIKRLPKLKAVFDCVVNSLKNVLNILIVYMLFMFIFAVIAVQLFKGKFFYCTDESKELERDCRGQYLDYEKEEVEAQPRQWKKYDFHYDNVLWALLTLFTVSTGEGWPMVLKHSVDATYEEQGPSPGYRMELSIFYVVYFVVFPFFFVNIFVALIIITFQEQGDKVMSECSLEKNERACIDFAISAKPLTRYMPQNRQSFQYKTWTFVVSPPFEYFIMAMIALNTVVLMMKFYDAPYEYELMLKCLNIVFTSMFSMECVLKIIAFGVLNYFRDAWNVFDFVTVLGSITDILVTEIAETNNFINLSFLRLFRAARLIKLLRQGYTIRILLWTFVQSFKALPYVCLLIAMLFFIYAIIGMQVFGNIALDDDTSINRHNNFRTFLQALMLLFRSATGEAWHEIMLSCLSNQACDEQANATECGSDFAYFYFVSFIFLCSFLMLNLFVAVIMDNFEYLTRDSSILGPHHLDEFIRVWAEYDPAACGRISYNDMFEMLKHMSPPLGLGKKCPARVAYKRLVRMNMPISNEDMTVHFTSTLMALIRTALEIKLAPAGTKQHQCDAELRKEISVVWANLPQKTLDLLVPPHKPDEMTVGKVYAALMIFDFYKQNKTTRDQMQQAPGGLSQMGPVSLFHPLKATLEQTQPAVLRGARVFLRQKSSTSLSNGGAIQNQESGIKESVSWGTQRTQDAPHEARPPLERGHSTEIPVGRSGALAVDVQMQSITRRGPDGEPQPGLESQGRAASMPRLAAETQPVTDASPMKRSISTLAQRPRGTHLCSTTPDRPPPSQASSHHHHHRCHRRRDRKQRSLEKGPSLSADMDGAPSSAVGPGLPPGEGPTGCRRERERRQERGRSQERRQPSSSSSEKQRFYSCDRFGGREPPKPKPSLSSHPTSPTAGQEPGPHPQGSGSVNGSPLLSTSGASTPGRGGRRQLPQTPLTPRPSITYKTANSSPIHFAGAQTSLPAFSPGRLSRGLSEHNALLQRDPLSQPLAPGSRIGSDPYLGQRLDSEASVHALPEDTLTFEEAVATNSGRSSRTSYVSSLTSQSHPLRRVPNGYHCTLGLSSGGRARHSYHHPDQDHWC
T1 sequence (P54284 whole entry, further chain): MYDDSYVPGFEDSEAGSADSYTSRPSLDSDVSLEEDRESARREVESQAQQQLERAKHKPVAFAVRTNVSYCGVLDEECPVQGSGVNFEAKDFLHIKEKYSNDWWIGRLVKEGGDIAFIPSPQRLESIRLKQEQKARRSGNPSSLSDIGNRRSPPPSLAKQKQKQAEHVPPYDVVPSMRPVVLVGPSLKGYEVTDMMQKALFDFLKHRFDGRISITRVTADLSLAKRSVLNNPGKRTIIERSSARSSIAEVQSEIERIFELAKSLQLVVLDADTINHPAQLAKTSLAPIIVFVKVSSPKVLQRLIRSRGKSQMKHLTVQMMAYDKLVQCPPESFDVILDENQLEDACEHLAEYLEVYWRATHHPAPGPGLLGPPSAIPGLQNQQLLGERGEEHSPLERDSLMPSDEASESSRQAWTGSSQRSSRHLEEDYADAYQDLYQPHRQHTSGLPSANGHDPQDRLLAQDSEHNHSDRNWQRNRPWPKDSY
T1 sequence (P54289 25-1103, further chain): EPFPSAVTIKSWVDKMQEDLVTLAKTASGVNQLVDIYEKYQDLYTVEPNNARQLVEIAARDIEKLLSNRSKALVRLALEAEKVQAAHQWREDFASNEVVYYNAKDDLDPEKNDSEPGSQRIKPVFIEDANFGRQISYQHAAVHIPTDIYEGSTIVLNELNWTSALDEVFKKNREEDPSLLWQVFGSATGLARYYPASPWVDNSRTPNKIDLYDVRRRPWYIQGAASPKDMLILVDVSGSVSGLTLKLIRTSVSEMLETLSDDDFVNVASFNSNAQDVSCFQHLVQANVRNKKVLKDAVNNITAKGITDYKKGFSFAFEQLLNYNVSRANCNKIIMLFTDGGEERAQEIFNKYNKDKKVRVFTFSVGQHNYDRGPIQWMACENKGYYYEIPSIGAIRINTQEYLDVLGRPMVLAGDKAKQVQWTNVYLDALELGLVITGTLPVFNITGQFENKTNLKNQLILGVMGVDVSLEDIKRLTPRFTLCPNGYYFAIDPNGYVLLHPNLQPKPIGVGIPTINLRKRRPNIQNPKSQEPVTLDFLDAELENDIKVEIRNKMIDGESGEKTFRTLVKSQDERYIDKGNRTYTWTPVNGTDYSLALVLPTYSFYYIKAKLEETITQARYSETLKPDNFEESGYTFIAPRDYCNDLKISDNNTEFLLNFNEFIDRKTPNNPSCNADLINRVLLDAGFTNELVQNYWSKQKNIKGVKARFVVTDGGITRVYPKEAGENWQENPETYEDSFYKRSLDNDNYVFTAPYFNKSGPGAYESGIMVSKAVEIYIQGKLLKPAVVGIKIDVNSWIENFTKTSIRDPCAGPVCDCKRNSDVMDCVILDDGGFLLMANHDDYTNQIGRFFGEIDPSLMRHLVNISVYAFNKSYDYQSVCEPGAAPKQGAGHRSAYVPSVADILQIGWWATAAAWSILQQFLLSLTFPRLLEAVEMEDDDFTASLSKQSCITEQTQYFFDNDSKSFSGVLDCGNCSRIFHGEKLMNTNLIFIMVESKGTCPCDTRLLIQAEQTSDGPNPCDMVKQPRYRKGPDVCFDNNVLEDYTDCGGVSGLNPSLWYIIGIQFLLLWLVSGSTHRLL
From the text: In the process, the Ca^2+ influx is quantified in the FLIPR assay with the aid of a Ca^2+-sensitive dye (type Fluo-4, Molecular Probes Europe BV, Leiden, the Netherlands) in a fluorescent imaging plate reader (FLIPR 3, Molecular Devices, Sunnyvale, USA), as described hereinafter.
Human CaV2.2 channels were stably expressed in HEK293 cells together with alpha2-delta and beta subunits of voltage gated calcium channels. In addition, an inwardly rectifying potassium channel (Kir2.3) was stably expressed in these cells to augment control of the cell membrane potential by the concentration of extracellular potassium ions. Raise of the extracellular potassium concentration leads to depolarization of the membrane potential and thus regulates the voltage dependent state of CaV2.2 channels. For preparation, cells were seeded in black poly-D-lysine coated 96-well plates (Becton Dickinson, Biocoat 4640) in 100 μL medium [500 mL DMEM/F-12 plus Glutamax (Invitrogen 31331-093) plus 5.5 mL MEM NEAA 100× (Invitrogen 11140-035) plus 50 mL FBS decomplemented (Invitrogen 10270-106) plus 200 μg/mL Geneticin (Invitrogen 10131-027) plus 50 μg/mL Hygromycin B (Invitrogen 10687-010) plus 2 μg/mL Blasticidin (anti-bl5b Invivo-Gen) plus 0.2 μg/mL Puromycin (A 11138-03)] at a cell density of 30.000 cells per well. Plates were incubated at 37° C. (5% CO2) for 20 to 23 h. On the day of experiment medium was discarded and cells were loaded with Fluo 4 by addition of 100 μL of basic assay buffer (10 mM HEPES, 1 mM KCl, 149 mM NaCl, 0.8 mM CaCl2, 1.7 mM MgCl2, 10 mM Glucose, 0.1% BSA. pH 7.4) containing 2 μM Fluo 4 (Molecular Probes; F-14201), 0.01% pluronic acid (Molecular Probes; P-6866) and 2.5 mM probenecid (Molecular Probes; P36400). Cells were incubated in the dark at 25° C. for 60 min. Then dye containing buffer was discarded and 100 μL basic (1 mM KCl) or alternative (30 mM KCl) assay buffer was added. The alternative assay buffer contained altered concentrations of KCl (30 mM) and NaCl (120 mM) and was used in order to promote the inactivated channel state. After that 25 μL of basic or alternative assay buffer with or without test compound were added and cells were incubated again in the dark at 25° C. for 15 min. Fluorescence intensity was measured on a FLIPR 3 instrument (Molecular Devices Corp., Sunnyvale, Calif.) with excitation at 480 nm and emission at 535 nm. After continuously reading fluorescence for 30 sec, 50 μL of basic assay buffer containing 210 mM KCl (NaCl omitted) were added for depolarization. Peak fluorescent signal intensity was determined and the amplitude of the peak signal, normalized to base line, was used to measure channel inhibition by test compounds.

SMILES	inhibition at 3 µM [%]
Cc1c(-c2ccc(Cl)cc2)c(C(=O)N(Cc2ccccc2)C2CCOCC2)n(C)c1C(F)(F)F [Example 001, N-Benzyl-3-(4-chlorophenyl)-1,4-dimethyl-N-tetrahydro-pyran-4-yl-5-(trifluoromethyl)-1H-pyrrole-2-carboxylic acid amide]	75 to 95
Cc1c(-c2ccc(Cl)cc2)c(C(=O)N(C)CC(C)(C)C)n(C)c1C(F)(F)F [Example 002, 3-(4-Chlorophenyl)-N-(2,2-dimethyl-propyl)-N,1,4-trimethyl-5-(trifluoromethyl)-1H-pyrrole-2-carboxylic acid amide]	75 to 95
Cc1c(-c2ccc(Cl)cc2)c(C(=O)N(Cc2ccccc2)CC(C)(C)C)n(C)c1C(F)(F)F [Example 003, N-Benzyl-3-(4-chlorophenyl)-N-(2,2-dimethyl-propyl)-1,4-dimethyl-5-(trifluoromethyl)-1H-pyrrole-2-carboxylic acid amide]	40 to 75
Cc1c(-c2ccc(Cl)cc2)c(C(=O)N2CCOCC2)n(C)c1C(F)(F)F [Example 004, [3-(4-Chlorophenyl)-1,4-dimethyl-5-(trifluoromethyl)-1H-pyrrol-2-yl]-morpholin-4-yl-methanone]	75 to 95
CCn1c(C(=O)N(C)CC(C)(C)C)c(-c2ccc(Cl)cc2)c(C)c1C(F)(F)F [Example 005, 3-(4-Chlorophenyl)-N-(2,2-dimethyl-propyl)-1-ethyl-N,4-dimethyl-5-(trifluoromethyl)-1H-pyrrole-2-carboxylic acid amide]	40 to 75
Cc1c(-c2ccc(Cl)cc2)c(C(=O)N2CCOC(C)(C)C2)n(C(C)C)c1C(F)(F)F [Example 006, [3-(4-Chlorophenyl)-1-isopropyl-4-methyl-5-(trifluoromethyl)-1H-pyrrol-2-yl]-(2,2-dimethyl-morpholin-4-yl)-methanone]	75 to 95
Cc1c(-c2ccc(Cl)cc2)c(C(=O)N(C)C2(C(N)=O)CC2)n(C2CC2)c1C(F)(F)F [Example 007, N-(1-Carbamoyl-cyclopropyl)-3-(4-chlorophenyl)-1-cyclopropyl-N,4-dimethyl-5-(trifluoromethyl)-1H-pyrrole-2-carboxylic acid amide]	40 to 75
Cc1c(-c2ccc(Cl)cc2)c(C(=O)N(C)C2CCS(=O)(=O)CC2)n(C2CC2)c1C(F)(F)F [Example 008, 3-(4-Chlorophenyl)-1-cyclopropyl-N-(1,1-dioxo-thian-4-yl)-N,4-dimethyl-5-(trifluoromethyl)-1H-pyrrole-2-carboxylic acid amide]	75 to 95
Cc1c(-c2ccc(Cl)cc2)c(C(=O)N(C)CC(C)(C)C(N)=O)n(C2CC2)c1C(F)(F)F [Example 009, N-(2-Carbamoyl-2-methyl-propyl)-3-(4-chlorophenyl)-1-cyclopropyl-N,4-dimethyl-5-(trifluoromethyl)-1H-pyrrole-2-carboxylic acid amide]	75 to 95
COc1ccc(CN(C)C(=O)c2c(-c3ccc(Cl)cc3)c(C)c(C(F)(F)F)n2C2CC2)cc1 [Example 010, 3-(4-Chlorophenyl)-1-cyclopropyl-N-[(4-methoxyphenyl)-methyl]-N,4-dimethyl-5-(trifluoromethyl)-1H-pyrrole-2-carboxylic acid amide]	75 to 95
COc1ccc(CN(C)C(=O)c2c(-c3ccc(Cl)cc3)cc(C(F)(F)F)n2C2CC2)cc1 [Example 011, 3-(4-Chlorophenyl)-1-cyclopropyl-N-[(4-methoxyphenyl)-methyl]-N-methyl-5-(trifluoromethyl)-1H-pyrrole-2-carboxylic acid amide]	75 to 95
Cc1c(-c2ccc(Cl)cc2)c(C(=O)N(C)C2CC2)n(C2CC2)c1C(F)(F)F [Example 012, 3-(4-Chlorophenyl)-N,1-dicyclopropyl-N,4-dimethyl-5-(trifluoromethyl)-1H-pyrrole-2-carboxylic acid amide]	75 to 95
CN(C(=O)c1c(-c2ccc(Cl)cc2)cc(C(F)(F)F)n1C1CC1)C1CC1 [Example 013, 3-(4-Chlorophenyl)-N,1-dicyclopropyl-N-methyl-5-(trifluoromethyl)-1H-pyrrole-2-carboxylic acid amide]	75 to 95
Cc1c(-c2ccc(Cl)cc2)c(C(=O)N(C)C2CCOCC2)n(C2CC2)c1C(F)(F)F [Example 014, 3-(4-Chlorophenyl)-1-cyclopropyl-N,4-dimethyl-N-tetrahydro-pyran-4-yl-5-(trifluoromethyl)-1H-pyrrole-2-carboxylic acid amide]	75 to 95
CN(C(=O)c1c(-c2ccc(Cl)cc2)cc(C(F)(F)F)n1C1CC1)C1CCOCC1 [Example 015, 3-(4-Chlorophenyl)-1-cyclopropyl-N-methyl-N-tetrahydro-pyran-4-yl-5-(trifluoromethyl)-1H-pyrrole-2-carboxylic acid amide]	75 to 95
Cc1c(-c2ccc(Cl)cc2)c(C(=O)N(C)CC(C)(C)CN2CCOCC2)n(C2CC2)c1C(F)(F)F [Example 016, 3-(4-Chlorophenyl)-1-cyclopropyl-N-(2,2-dimethyl-3-morpholin-4-yl-propyl)-N,4-dimethyl-5-(trifluoromethyl)-1H-pyrrole-2-carboxylic acid amide]	> 95
CN(CC(C)(C)CN1CCOCC1)C(=O)c1c(-c2ccc(Cl)cc2)cc(C(F)(F)F)n1C1CC1 [Example 017, 3-(4-Chlorophenyl)-1-cyclopropyl-N-(2,2-dimethyl-3-morpholin-4-yl-propyl)-N-methyl-5-(trifluoromethyl)-1H-pyrrole-2-carboxylic acid amide]	75 to 95
Cc1c(-c2ccc(Cl)cc2)c(C(=O)N(C)CC(C)(C)O)n(C2CC2)c1C(F)(F)F [Example 018, 3-(4-Chlorophenyl)-1-cyclopropyl-N-(2-hydroxy-2-methyl-propyl)-N,4-dimethyl-5-(trifluoromethyl)-1H-pyrrole-2-carboxylic acid amide]	75 to 95
CN(CC(C)(C)O)C(=O)c1c(-c2ccc(Cl)cc2)cc(C(F)(F)F)n1C1CC1 [Example 019, 3-(4-Chlorophenyl)-1-cyclopropyl-N-(2-hydroxy-2-methyl-propyl)-N-methyl-5-(trifluoromethyl)-1H-pyrrole-2-carboxylic acid amide]	40 to 75
Cc1cc(CN(C)C(=O)c2c(-c3ccc(Cl)cc3F)c(C)c(C(F)(F)F)n2C2CC2)no1 [Example 020, 3-(4-Chloro-2-fluoro-phenyl)-1-cyclopropyl-N,4-dimethyl-N-[(5-methyl-isoxazol-3-yl)-methyl]-5-(trifluoromethyl)-1H-pyrrole-2-carboxylic acid amide]	> 95
Cc1c(-c2ccc(Cl)cc2F)c(C(=O)N(C)Cc2ccncn2)n(C2CC2)c1C(F)(F)F [Example 021, 3-(4-Chloro-2-fluoro-phenyl)-1-cyclopropyl-N,4-dimethyl-N-(pyrimidin-4-yl-methyl)-5-(trifluoromethyl)-1H-pyrrole-2-carboxylic acid amide]	> 95
Cc1c(-c2ccc(Cl)cc2)c(C(=O)N(C)CC2CCOC2)n(C2CC2)c1C(F)(F)F (stereo not drawn) [Example 022, 3-(4-Chlorophenyl)-1-cyclopropyl-N,4-dimethyl-N-(tetrahydro-furan-3-yl-methyl)-5-(trifluoromethyl)-1H-pyrrole-2-carboxylic acid amide]	> 95
CN(CC1CCOC1)C(=O)c1c(-c2ccc(Cl)cc2)cc(C(F)(F)F)n1C1CC1 (stereo not drawn) [Example 023, 3-(4-Chlorophenyl)-1-cyclopropyl-N-methyl-N-(tetrahydro-furan-3-yl-methyl)-5-(trifluoromethyl)-1H-pyrrole-2-carboxylic acid amide]	75 to 95
Cc1cnc(CN(C)C(=O)c2c(-c3ccc(Cl)cc3F)c(C)c(C(F)(F)F)n2C2CC2)cn1 [Example 024, 3-(4-Chloro-2-fluoro-phenyl)-1-cyclopropyl-N,4-dimethyl-N-[(5-methyl-pyrazin-2-yl)-methyl]-5-(trifluoromethyl)-1H-pyrrole-2-carboxylic acid amide]	> 95
